Key:
Plasmodium falciparum [1] = test: Antimalarial activity against Plasmodium falciparum 3D7 after 72 hrs by SYBR Green fluorescence assay; format: functional, organism-based; conditions: 3D7, 72 h
Plasmodium falciparum [2] = test: Antimalarial activity against Plasmodium falciparum K1 after 72 hrs by SYBR Green fluorescence assay; format: functional, organism-based; conditions: K1, 72 h
[3] = Cytotoxicity against african green monkey Vero cells after 2 days by resazurin assay; format: cell-based; conditions: chlorocebus sabaeus
Heme = test: Inhibition of heme polymerization in Plasmodium yoelii nigeriensis infected erythrocytes (unknown origin) extract at 100 uM after 4 hrs by spectrophotometry
[4] = Terminal elimination half-life in Sprague-Dawley rat at 5 mg/kg, iv; format: ADME, organism-based; set-up: dose 5 mg/kg, route intravenous; conditions: in vivo, read-out: beta t1/2 (converted)
[5] = Volume of distribution in Sprague-Dawley rat at 5 mg/kg, iv; format: ADME, organism-based; set-up: dose 5 mg/kg, route intravenous; conditions: in vivo
[6] = Systemic clearance in Sprague-Dawley rat at 5 mg/kg, iv; format: ADME, organism-based; set-up: dose 5 mg/kg, route intravenous; conditions: in vivo

Structure (SMILES): O=C(/C=C/c1cccc(NC(=O)Nc2ccccc2)c1)C[C@@H]1O[C@H](CO)[C@@H](O)[C@H](O)[C@@H]1O
- IC50 (Plasmodium falciparum [1]): 20 µM
- IC50 (Plasmodium falciparum [2]): 20 µM

Structure (SMILES): CC(=O)OC[C@H]1O[C@@H](CC(=O)/C=C/c2ccc(NC(=S)Nc3ccccc3)cc2)[C@H](OC(C)=O)[C@@H](OC(C)=O)[C@@H]1OC(C)=O
- IC50 (Plasmodium falciparum [1]): 1.83 µM
- CC50 at 48 h [3]: 663 µM
- IC50 (Plasmodium falciparum [2]): 2.3 µM

Structure (SMILES): O=C(/C=C/c1cccc(NC(=O)Nc2ccccc2)c1)C[C@@H]1O[C@H](CO)[C@@H](O)[C@H](O)[C@H]1O
- IC50 (Plasmodium falciparum [1]): 3.77 µM
- CC50 at 48 h [3]: 373 µM
- IC50 (Plasmodium falciparum [2]): 3.39 µM

Structure (SMILES): Cc1ccc(S(=O)(=O)Nc2cccc(/C=C/C(=O)C[C@@H]3OC[C@@H](O)[C@H](O)[C@H]3O)c2)cc1
- IC50 (Plasmodium falciparum [1]): 2.93 µM
- CC50 at 48 h [3]: 94.7 µM
- IC50 (Plasmodium falciparum [2]): 6.35 µM

Structure (SMILES): COc1ccc(NC(=O)Nc2ccccc2)c([N+](=O)[O-])c1
- IC50 (Plasmodium falciparum [1]): > 20 µM
- CC50 at 48 h [3]: 356 µM
- IC50 (Plasmodium falciparum [2]): 18 µM

Structure (SMILES): O=C(/C=C/c1cccc(NC(=S)Nc2ccccc2)c1)C[C@@H]1O[C@H](CO)[C@@H](O)[C@H](O)[C@@H]1O
- IC50 (Plasmodium falciparum [1]): 13.1 µM
- CC50 at 48 h [3]: 336 µM
- IC50 (Plasmodium falciparum [2]): 17.8 µM

Structure (SMILES): CC(=O)O[C@@H]1[C@@H](OC(C)=O)[C@H](OC(C)=O)CO[C@H]1CC(=O)/C=C/c1cccc(NC(=O)Nc2ccccc2)c1
- IC50 (Plasmodium falciparum [1]): 3.17 µM
- CC50 at 48 h [3]: 102 µM
- IC50 (Plasmodium falciparum [2]): 4.92 µM
- inhibition (Heme): 76.9%

Structure (SMILES): Cc1ccc(S(=O)(=O)Nc2cccc(/C=C/C(=O)C[C@@H]3O[C@H](CO)[C@@H](O)[C@H](O)[C@H]3O)c2)cc1
- IC50 (Plasmodium falciparum [1]): 2.2 µM
- CC50 at 48 h [3]: 381 µM
- IC50 (Plasmodium falciparum [2]): 3.87 µM

Structure (SMILES): CC(=O)OC[C@H]1O[C@@H](CC(=O)/C=C/c2ccc(NC(=O)Nc3ccc4ccccc4c3)cc2)[C@H](OC(C)=O)[C@@H](OC(C)=O)[C@@H]1OC(C)=O
- IC50 (Plasmodium falciparum [1]): 2.18 µM
- CC50 at 48 h [3]: 482 µM
- IC50 (Plasmodium falciparum [2]): 5.36 µM

Structure (SMILES): CCOC(=O)/C=C/c1cccc(NC(=O)Nc2ccccc2)c1
- IC50 (Plasmodium falciparum [1]): 8.8 µM
- CC50 at 48 h [3]: 293 µM
- IC50 (Plasmodium falciparum [2]): 13.4 µM

Structure (SMILES): CC(=O)O[C@@H]1[C@@H](OC(C)=O)[C@H](OC(C)=O)CO[C@H]1CC(=O)/C=C/c1cccc(NC(=S)Nc2ccccc2)c1
- IC50 (Plasmodium falciparum [1]): 4.2 µM
- CC50 at 48 h [3]: 58.7 µM
- IC50 (Plasmodium falciparum [2]): 5.57 µM

Structure (SMILES): O=C(/C=C/c1cccc(NC(=S)Nc2ccccc2)c1)C[C@@H]1OC[C@@H](O)[C@H](O)[C@H]1O
- IC50 (Plasmodium falciparum [1]): 6.89 µM
- CC50 at 48 h [3]: 289 µM
- IC50 (Plasmodium falciparum [2]): 8.69 µM

Structure (SMILES): COc1cc([N+](=O)[O-])ccc1NC(=S)Nc1cccc(/C=C/C(=O)C[C@@H]2O[C@H](CO)[C@@H](O)[C@H](O)[C@H]2O)c1
- IC50 (Plasmodium falciparum [1]): 3.35 µM
- CC50 at 48 h [3]: 203 µM
- IC50 (Plasmodium falciparum [2]): 2.47 µM

Structure (SMILES): CC(=O)OC[C@H]1O[C@@H](CC(=O)/C=C/c2cccc(NS(=O)(=O)c3ccc(C)cc3)c2)[C@@H](OC(C)=O)[C@@H](OC(C)=O)[C@@H]1OC(C)=O
- IC50 (Plasmodium falciparum [1]): 3.96 µM
- CC50 at 48 h [3]: 123 µM
- IC50 (Plasmodium falciparum [2]): 5.19 µM

Structure (SMILES): Cc1ccc(S(=O)(=O)Nc2ccccc2)cc1
- IC50 (Plasmodium falciparum [1]): > 20 µM
- CC50 at 48 h [3]: 221 µM
- IC50 (Plasmodium falciparum [2]): > 20 µM

Structure (SMILES): CC(=O)OC[C@H]1O[C@@H](CC(=O)/C=C/c2cccc(NC(=O)Nc3ccccc3)c2)[C@H](OC(C)=O)[C@@H](OC(C)=O)[C@@H]1OC(C)=O
- IC50 (Plasmodium falciparum [1]): 2.29 µM
- CC50 at 48 h [3]: 180 µM
- IC50 (Plasmodium falciparum [2]): 2.4 µM
- inhibition (Heme): 72.5%

Structure (SMILES): O=C(/C=C/c1cccc(NC(=O)Nc2ccccc2)c1)C[C@@H]1OC[C@@H](O)[C@H](O)[C@H]1O
- IC50 (Plasmodium falciparum [1]): 3.44 µM
- CC50 at 48 h [3]: 309 µM
- IC50 (Plasmodium falciparum [2]): 5.43 µM

Structure (SMILES): O=C(Nc1ccccc1)Nc1ccccc1
- IC50 (Plasmodium falciparum [1]): 13.8 µM
- CC50 at 48 h [3]: 352 µM
- IC50 (Plasmodium falciparum [2]): > 20 µM

Structure (SMILES): CCOC(=O)/C=C/c1cccc(NS(=O)(=O)c2ccc(C)cc2)c1
- IC50 (Plasmodium falciparum [1]): 16.1 µM
- CC50 at 48 h [3]: 77.1 µM
- IC50 (Plasmodium falciparum [2]): 16.1 µM

Structure (SMILES): CC(=O)OC[C@H]1O[C@@H](CC(=O)/C=C/c2cccc(NC(=S)Nc3ccccc3)c2)[C@@H](OC(C)=O)[C@@H](OC(C)=O)[C@@H]1OC(C)=O
- IC50 (Plasmodium falciparum [1]): 3.73 µM
- CC50 at 48 h [3]: 65.1 µM
- IC50 (Plasmodium falciparum [2]): 2.87 µM

Structure (SMILES): COc1ccc(NC(=O)Nc2cccc(/C=C/C(=O)C[C@@H]3O[C@H](CO)[C@@H](O)[C@H](O)[C@H]3O)c2)c([N+](=O)[O-])c1
- IC50 (Plasmodium falciparum [1]): 0.56 µM
- CC50 at 48 h [3]: 709 µM
- half-life [4]: 7.1 h
- IC50 (Plasmodium falciparum [2]): 1.58 µM
- Vd [5]: 2.8 L/kg
- clearance [6]: 17 mL/min/kg

Structure (SMILES): CC(=O)OC[C@H]1O[C@@H](CC(=O)/C=C/c2ccc(NC(=O)Nc3ccccc3)cc2)[C@H](OC(C)=O)[C@@H](OC(C)=O)[C@@H]1OC(C)=O
- IC50 (Plasmodium falciparum [1]): 5.27 µM
- CC50 at 48 h [3]: 820 µM
- IC50 (Plasmodium falciparum [2]): 5.55 µM

Structure (SMILES): COc1ccc(NC(=O)Nc2cccc(/C=C/C(=O)C[C@@H]3O[C@H](COC(C)=O)[C@@H](OC(C)=O)[C@H](OC(C)=O)[C@H]3OC(C)=O)c2)c([N+](=O)[O-])c1
- IC50 (Plasmodium falciparum [1]): 0.94 µM
- CC50 at 48 h [3]: 730 µM
- IC50 (Plasmodium falciparum [2]): 4.23 µM
- inhibition (Heme): 92.7%

Structure (SMILES): O=C(/C=C/c1cccc(NC(=S)Nc2ccccc2)c1)C[C@@H]1O[C@H](CO)[C@@H](O)[C@H](O)[C@H]1O
- IC50 (Plasmodium falciparum [1]): 9.43 µM
- CC50 at 48 h [3]: 371 µM
- IC50 (Plasmodium falciparum [2]): 7.2 µM

Structure (SMILES): Cc1ccc(S(=O)(=O)Nc2cccc(/C=C/C(=O)C[C@@H]3O[C@H](CO)[C@@H](O)[C@H](O)[C@@H]3O)c2)cc1
- IC50 (Plasmodium falciparum [1]): 3.89 µM
- CC50 at 48 h [3]: 417 µM
- IC50 (Plasmodium falciparum [2]): 5.11 µM

Structure (SMILES): O=C(/C=C/c1ccc(NC(=O)Nc2ccc3ccccc3c2)cc1)C[C@@H]1O[C@H](CO)[C@@H](O)[C@H](O)[C@H]1O
- IC50 (Plasmodium falciparum [1]): 5.91 µM
- CC50 at 48 h [3]: 1020 µM
- IC50 (Plasmodium falciparum [2]): 5.28 µM

Structure (SMILES): CC(=O)OC[C@H]1O[C@@H](CC(=O)/C=C/c2cccc(NC(=S)Nc3ccccc3)c2)[C@H](OC(C)=O)[C@@H](OC(C)=O)[C@@H]1OC(C)=O
- IC50 (Plasmodium falciparum [1]): 1.91 µM
- CC50 at 48 h [3]: 337 µM
- IC50 (Plasmodium falciparum [2]): 4.48 µM

Structure (SMILES): O=C(/C=C/c1ccc(NC(=O)Nc2ccccc2)cc1)C[C@@H]1O[C@H](CO)[C@@H](O)[C@H](O)[C@H]1O
- IC50 (Plasmodium falciparum [1]): 7.51 µM
- CC50 at 48 h [3]: 1130 µM
- IC50 (Plasmodium falciparum [2]): 7.66 µM

Structure (SMILES): CC(=O)OC[C@H]1O[C@@H](CC(=O)/C=C/c2cccc(NS(=O)(=O)c3ccc(C)cc3)c2)[C@H](OC(C)=O)[C@@H](OC(C)=O)[C@@H]1OC(C)=O
- IC50 (Plasmodium falciparum [1]): 1.14 µM
- CC50 at 48 h [3]: 584 µM
- IC50 (Plasmodium falciparum [2]): 2.17 µM

Structure (SMILES): CCN(CC)CCCC(C)Nc1ccnc2cc(Cl)ccc12 (centres undefined) [CHLOROQUINE]
- CC50 at 48 h [3]: 685 µM

Structure (SMILES): CC(=O)OC[C@H]1O[C@@H](CC(=O)/C=C/c2cccc(NC(=O)Nc3ccccc3)c2)[C@@H](OC(C)=O)[C@@H](OC(C)=O)[C@@H]1OC(C)=O
- IC50 (Plasmodium falciparum [1]): 6.65 µM
- CC50 at 48 h [3]: 102 µM
- IC50 (Plasmodium falciparum [2]): 7.81 µM

Structure (SMILES): CCOC(=O)/C=C/c1cccc(NC(=S)Nc2ccccc2)c1
- IC50 (Plasmodium falciparum [1]): > 20 µM
- CC50 at 48 h [3]: 279 µM
- IC50 (Plasmodium falciparum [2]): > 20 µM

Structure (SMILES): COc1cc([N+](=O)[O-])ccc1NC(=S)Nc1cccc(/C=C/C(=O)C[C@@H]2O[C@H](COC(C)=O)[C@@H](OC(C)=O)[C@H](OC(C)=O)[C@H]2OC(C)=O)c1
- IC50 (Plasmodium falciparum [1]): 0.55 µM
- CC50 at 48 h [3]: 559 µM
- IC50 (Plasmodium falciparum [2]): 0.42 µM
- inhibition (Heme): 72.1%

Structure (SMILES): CC(=O)O[C@@H]1[C@@H](OC(C)=O)[C@H](OC(C)=O)CO[C@H]1CC(=O)/C=C/c1cccc(NS(=O)(=O)c2ccc(C)cc2)c1
- IC50 (Plasmodium falciparum [1]): 1.39 µM
- CC50 at 48 h [3]: 268 µM
- IC50 (Plasmodium falciparum [2]): 3 µM

Structure (SMILES): O=C(/C=C/c1ccc(NC(=S)Nc2ccccc2)cc1)C[C@@H]1O[C@H](CO)[C@@H](O)[C@H](O)[C@H]1O
- IC50 (Plasmodium falciparum [1]): 11.8 µM
- CC50 at 48 h [3]: 274 µM
- IC50 (Plasmodium falciparum [2]): 13.8 µM

Reference: ChEMBL document CHEMBL3351535, “Identification of novel phenyl butenonyl C-glycosides with ureidyl and sulfonamidyl moieties as antimalarial agents” (ACS Med Chem Lett, 2014)
